Assay results published in paper PMC10795512 (Cell reports. Physical science, 2023).
Where no end group is shown, it is not given here.

Key:
[1] = test system: P. aeruginosa PA14; assay: MIC, broth microdilution; type: cell-based, Pseudomonas aeruginosa; details: LB broth, 5 × 10^5 CFU mL^−1, 24 h at 37°C, OD 600 nm, three replicates
[2] = test system: S. aureus ATCC 12600; assay: MIC, broth microdilution; type: cell-based, Staphylococcus aureus; details: LB broth, 5 × 10^5 CFU mL^−1, 24 h at 37°C, OD 600 nm, three replicates
[3] = test system: E. coli ATCC 11775; assay: MIC, broth microdilution; type: cell-based, Escherichia coli; details: LB broth, 5 × 10^5 CFU mL^−1, 24 h at 37°C, OD 600 nm, three replicates
[4] = test system: P. aeruginosa PAO1; assay: MIC, broth microdilution; type: cell-based, Pseudomonas aeruginosa; details: LB broth, 5 × 10^5 CFU mL^−1, 24 h at 37°C, OD 600 nm, three replicates
[5] = test system: primary human keratinocytes; assay: Cytotoxicity, XTT assay; type: cell-based; details: for toxicity: at the highest concentration tested, 64 μmol L^−1, 24 h
[6] = test system: human embryonic kidney (HEK) cells (ATCC HEK293T); assay: Cytotoxicity, XTT assay; type: cell-based
[7] = test system: human erythrocytes; details: at a concentration of 10^−4 mol L^−1; cited from earlier work
[8] = test system: mouse erythrocytes; details: at a concentration of 10^−4 mol L^−1; cited from earlier work
[9] = test system: P. aeruginosa PAO1; assay: Synergy; type: cell-based, Pseudomonas aeruginosa; details: checkerboard; for FICI, combined with PMB: 2- to 0.03-fold MIC, 24 h at 37°C, three replicates; for FICI, WT1 and WT2 in combination: different concentrations
[10] = test system: E. coli JW2703 (hypermutant strain) ΔmutS::kan; assay: Resistance development assay; type: cell-based, Escherichia coli; details: over the same period (20 days)

Substance | MIC [1] [µM] | MIC [2] [µM] | MIC [3] [µM] | MIC [4] [µM] | other results
AKLMGIVKKVLGAL-NH2 [A1–1] | 16 | 8 | 4 | 16 | –
LKLAGIVKKVLGAL-NH2 [A4–1] | – | 8 | 4 | – | –
LKLLAIVKKVLGAI-NH2 [A5–2] | – | 4 | 4 | – | –
LKLLGIVKKKLGAI-NH2 [K10–2] | 8 | 8 | 4 | 4 | cell viability remaining ([5]; at 8 μmol L^−1, 24 h): 92%; toxicity ([6]; at 16 μmol L^−1, 24 h): no toxicity
LKLLGIVKKVLAAI-NH2 [A12–2] | – | 2 | 4 | – | –
LKLLGIVKKVLGAI-NH2 [WT2, reference compound] | 64 | 32 | 16 | 32 | hemolytic activity [7]: hemolytic activity; hemolytic activity [8]: hemolytic activity; FICI, combined with PMB [9]: 0.5; FICI, WT1 and WT2 in combination [9]: 0.7
LKLLGIVKKVLGKI-NH2 [K13–2] | 16 | – | 4 | 4 | toxicity [5]: low toxicity; toxicity ([6]; any of the concentrations tested (1 to 64 μmol L^−1), 24 h): no toxicity
LKLMAIVKKVLGAL-NH2 [A5–1] | – | 4 | 4 | – | –
LKLMGIVKKVLAAL-NH2 [A12–1] | – | 2 | 2 | – | –
LKLMGIVKKVLGAL-NH2 [WT1, reference compound] | 32 | 16 | 8 | 32 | hemolytic activity [7]: hemolytic activity; hemolytic activity [8]: hemolytic activity; FICI, combined with PMB [9]: 0.7; FICI, WT1 and WT2 in combination [9]: 0.7
LKLMGIVKKVLGKL-NH2 [K13–1] | 16 | 128 | 4 | 8 | toxicity [5]: low toxicity; toxicity ([6]; at 4-fold MIC, 24 h): toxic; FICI, combined with PMB [9]: 0.6
polymyxin B [PMB] | – | – | – | – | change of MIC during resistance assay [10]: did not vary significantly
